Data as given in ChEMBL document CHEMBL1130694, “Selective chemical modifications of polymyxin B” (Bioorg Med Chem Lett, 1998).
Values after ≈ are worked out from the molar mass of the structure shown.

Legend:
Type in all cases: functional
[1] = tested on: Escherichia coli; test: Compound was tested for antibacterial activity against Escherichia coli organism
[2] = tested on: Pseudomonas; test: Compound was tested for antibacterial activity against Pseudomonas organism
[3] = tested on: Staphylococcus; test: Compound was tested for antibacterial activity against Staphylococcus organism

SMILES | MIC [1] | MIC [2] | MIC [3]
CC(=O)NCC[C@H](NC(=O)CCCCC(C)C)C(=O)N[C@H](C(=O)N[C@@H](CCN)C(=O)N[C@H]1CCNC(=O)[C@H]([C@@H](C)O)NC(=O)[C@H](CCN)NC(=O)[C@H](CCN)NC(=O)[C@H](CC(C)C)NC(=O)[C@@H](Cc2ccccc2)NC(=O)[C@H](CCN)NC1=O)[C@@H](C)O | 1.3 mg/L (≈ 1.06 µM) | 2.8 mg/L (≈ 2.27 µM) | 2.8 mg/L (≈ 2.27 µM)
CC(C)CCCCC(=O)N[C@@H](CCN)C(=O)N[C@H](C(=O)N[C@@H](CCN)C(=O)N[C@H]1CCNC(=O)[C@H]([C@@H](C)O)NC(=O)[C@H](CCNC(=O)[C@@H](N)CS)NC(=O)[C@H](CCN)NC(=O)[C@H](CC(C)C)NC(=O)[C@@H](Cc2ccccc2)NC(=O)[C@H](CCN)NC1=O)[C@@H](C)O | 1.68 mg/L (≈ 1.3 µM) | 2.82 mg/L (≈ 2.18 µM) | 11.3 mg/L (≈ 8.75 µM)
CC(C)CCCCC(=O)N[C@@H](CCN)C(=O)N[C@H](C(=O)N[C@@H](CCN)C(=O)N[C@H]1CCNC(=O)[C@H]([C@@H](C)O)NC(=O)[C@H](CCN(CC(=O)O)CC(=O)O)NC(=O)[C@H](CCN)NC(=O)[C@H](CC(C)C)NC(=O)[C@@H](Cc2ccccc2)NC(=O)[C@H](CCN)NC1=O)[C@@H](C)O | 1.19 mg/L (≈ 0.911 µM) | 0.318 mg/L (≈ 0.244 µM) | 22.6 mg/L (≈ 17.3 µM)
CC(C)CCCCC(=O)N[C@@H](CCN)C(=O)N[C@H](C(=O)N[C@@H](CCN)C(=O)N[C@H]1CCNC(=O)[C@H]([C@@H](C)O)NC(=O)[C@H](CCNC(=O)C(Cl)Cl)NC(=O)[C@H](CCN)NC(=O)[C@H](CC(C)C)NC(=O)[C@@H](Cc2ccccc2)NC(=O)[C@H](CCN)NC1=O)[C@@H](C)O | 1.54 mg/L (≈ 1.18 µM) | 0.995 mg/L (≈ 0.765 µM) | 0.82 mg/L (≈ 0.631 µM)
CC(C)CCCCC(=O)N[C@@H](CCN)C(=O)N[C@H](C(=O)N[C@@H](CCN)C(=O)N[C@H]1CCNC(=O)[C@H]([C@@H](C)O)NC(=O)[C@H](CCNC(=O)[C@@H](N)CCC/N=C(/N)N[N+](=O)[O-])NC(=O)[C@H](CCN)NC(=O)[C@H](CC(C)C)NC(=O)[C@@H](Cc2ccccc2)NC(=O)[C@H](CCN)NC1=O)[C@@H](C)O | 1.3 mg/L (≈ 0.935 µM) | 2.6 mg/L (≈ 1.87 µM) | 1.2 mg/L (≈ 0.863 µM)
CC(C)CCCCC(=O)N[C@@H](CCN)C(=O)N[C@H](C(=O)N[C@@H](CCN)C(=O)N[C@H]1CCNC(=O)[C@H]([C@@H](C)O)NC(=O)[C@H](CCNC(=O)CO)NC(=O)[C@H](CCN)NC(=O)[C@H](CC(C)C)NC(=O)[C@@H](Cc2ccccc2)NC(=O)[C@H](CCN)NC1=O)[C@@H](C)O | 1.54 mg/L (≈ 1.23 µM) | 1.53 mg/L (≈ 1.23 µM) | 22.6 mg/L (≈ 18.1 µM)
CCC(C)CCCCC(=O)NCC[C@@H]1NC(=O)[C@H](CCN)NC(=O)[C@H](CC(C)C)NC(=O)[C@@H](Cc2ccccc2)NC(=O)[C@H](CCN)NC(=O)[C@@H](NC(=O)[C@H](CCN)NC(=O)[C@@H](NC(=O)[C@H](CCN)NC(=O)CCCCC(C)C)[C@@H](C)O)CCNC(=O)[C@H]([C@@H](C)O)NC1=O (stereo partly drawn) | 3.1 mg/L (≈ 2.33 µM) | 2.18 mg/L (≈ 1.64 µM) | 0.7 mg/L (≈ 0.526 µM)

Now those with a lower MIC [1], led by results:

MIC [1] | MIC [2] | MIC [3] | SMILES
0.995 mg/L (≈ 0.799 µM) | 0.763 mg/L (≈ 0.613 µM) | 9.5 mg/L (≈ 7.63 µM) | CCN(CC)CC[C@@H]1NC(=O)[C@H](CCN)NC(=O)[C@H](CC(C)C)NC(=O)[C@@H](Cc2ccccc2)NC(=O)[C@H](CCN)NC(=O)[C@@H](NC(=O)[C@H](CCN)NC(=O)[C@@H](NC(=O)[C@H](CCN)NC(=O)CCCCC(C)C)[C@@H](C)O)CCNC(=O)[C@H]([C@@H](C)O)NC1=O
0.77 mg/L (≈ 0.583 µM) | 0.416 mg/L (≈ 0.315 µM) | 5.65 mg/L (≈ 4.28 µM) | CSCC[C@H](N)C(=O)NCC[C@@H]1NC(=O)[C@H](CCN)NC(=O)[C@H](CC(C)C)NC(=O)[C@@H](Cc2ccccc2)NC(=O)[C@H](CCN)NC(=O)[C@@H](NC(=O)[C@H](CCN)NC(=O)[C@@H](NC(=O)[C@H](CCN)NC(=O)CCCCC(C)C)[C@@H](C)O)CCNC(=O)[C@H]([C@@H](C)O)NC1=O
0.537 mg/L (≈ 0.441 µM) | 0.456 mg/L (≈ 0.375 µM) | 16 mg/L (≈ 13.1 µM) | CC(C)CCCCC(=O)N[C@@H](CCN)C(=O)N[C@H](C(=O)N[C@@H](CCN)C(=O)N[C@H]1CCNC(=O)[C@H]([C@@H](C)O)NC(=O)[C@H](CCN(C)C)NC(=O)[C@H](CCN)NC(=O)[C@H](CC(C)C)NC(=O)[C@@H](Cc2ccccc2)NC(=O)[C@H](CCN)NC1=O)[C@@H](C)O
0.492 mg/L (≈ 0.404 µM) | 0.413 mg/L (≈ 0.339 µM) | 9.5 mg/L (≈ 7.8 µM) | CCNCC[C@@H]1NC(=O)[C@H](CCN)NC(=O)[C@H](CC(C)C)NC(=O)[C@@H](Cc2ccccc2)NC(=O)[C@H](CCN)NC(=O)[C@@H](NC(=O)[C@H](CCN)NC(=O)[C@@H](NC(=O)[C@H](CCN)NC(=O)CCCCC(C)C)[C@@H](C)O)CCNC(=O)[C@H]([C@@H](C)O)NC1=O
0.454 mg/L (≈ 0.359 µM) | 0.085 mg/L (≈ 0.0671 µM) | 9.5 mg/L (≈ 7.5 µM) | CC(C)CCCCC(=O)N[C@@H](CCN)C(=O)N[C@H](C(=O)N[C@@H](CCN)C(=O)N[C@H]1CCNC(=O)[C@H]([C@@H](C)O)NC(=O)[C@H](CCNC(=O)CCl)NC(=O)[C@H](CCN)NC(=O)[C@H](CC(C)C)NC(=O)[C@@H](Cc2ccccc2)NC(=O)[C@H](CCN)NC1=O)[C@@H](C)O
0.453 mg/L (≈ 0.337 µM) | 0.207 mg/L (≈ 0.154 µM) | 4.48 mg/L (≈ 3.33 µM) | CC(C)CCCCC(=O)N[C@@H](CCNC(=O)[C@@H](N)CCCN=C(N)N)C(=O)N[C@H](C(=O)N[C@@H](CCN)C(=O)N[C@H]1CCNC(=O)[C@H]([C@@H](C)O)NC(=O)[C@H](CCN)NC(=O)[C@H](CCN)NC(=O)[C@H](CC(C)C)NC(=O)[C@@H](Cc2ccccc2)NC(=O)[C@H](CCN)NC1=O)[C@@H](C)O
0.208 mg/L (≈ 0.167 µM) | 0.206 mg/L (≈ 0.165 µM) | 2.4 mg/L (≈ 1.93 µM) | CCN(CC)CC[C@H](NC(=O)CCCCC(C)C)C(=O)N[C@H](C(=O)N[C@@H](CCN)C(=O)N[C@H]1CCNC(=O)[C@H]([C@@H](C)O)NC(=O)[C@H](CCN)NC(=O)[C@H](CCN)NC(=O)[C@H](CC(C)C)NC(=O)[C@@H](Cc2ccccc2)NC(=O)[C@H](CCN)NC1=O)[C@@H](C)O
0.173 mg/L (≈ 0.131 µM) | 0.032 mg/L (≈ 0.0243 µM) | 2.8 mg/L (≈ 2.13 µM) | CC(C)CCCCC(=O)N[C@@H](CCN)C(=O)N[C@H](C(=O)N[C@@H](CCN)C(=O)N[C@H]1CCNC(=O)[C@H]([C@@H](C)O)NC(=O)[C@H](CCNC(=O)[C@@H](N)CCCCN)NC(=O)[C@H](CCN)NC(=O)[C@H](CC(C)C)NC(=O)[C@@H](Cc2ccccc2)NC(=O)[C@H](CCN)NC1=O)[C@@H](C)O
0.112 mg/L (≈ 0.092 µM) | 0.146 mg/L (≈ 0.12 µM) | 2.3 mg/L (≈ 1.89 µM) | CCNCC[C@H](NC(=O)CCCCC(C)C)C(=O)N[C@H](C(=O)N[C@@H](CCN)C(=O)N[C@H]1CCNC(=O)[C@H]([C@@H](C)O)NC(=O)[C@H](CCN)NC(=O)[C@H](CCN)NC(=O)[C@H](CC(C)C)NC(=O)[C@@H](Cc2ccccc2)NC(=O)[C@H](CCN)NC1=O)[C@@H](C)O
